Experiments:
tumor models = test: drug efficacy of PI3K pathway agents with modulation of glucose metabolism in murine tumor models; assay type: in vivo, mice
KPC K8484 tumors = test: KPC K8484 allografts treated with BYL-719 alone or combined: tumor response and survival; assay type: in vivo, mice
[1] = tested on: MLL-AF9 driven Acute Myeloid Leukemia; test: syngeneic model of AML treated with BKM120 and ketogenic diet; assay type: in vivo, mice; details: BKM120 with ketogenic diet started before or with BKM120
Description: For AML studies, 10-12 weeks old male C57BL/6J mice were used for MLL-AF9 Ds-Red AML study (Approved protocol AC-AAAQ5405). For pre-treatment study with MLL-AF9 Ds-Red cells, keto and Keto/BKM group mice were given a ketogenic diet for 10 days prior to injection with MLL-AF9 Ds-Red cells (2×10^5 per mouse in 200 ul) via lateral tail vein. The day after iv injection, the mice were given 0.5% carboxymethyl cellulose (CMC) as vehicle control or BKM120 (37.5 mg/kg) by oral gavage for two weeks (5 out of 7 days). The mice were euthanized after two-week treatment to check the bone marrow for AML progress. The tumor progress was also monitored via IVIS spectrum machine.
For co-current treatment studies with MLL-AF9 Ds-Red cells, the mice were injected with MLL-AF9 Ds-Red cells (2×10^5 per mouse in 200 ul) via lateral tail vein. The day after iv injection, the mice were given vehicle or BKM120 (37.5 mg/kg) by oral gavage for two weeks. The Keto or Keto/BKM group were changed to a ketogenic diet on the same day. The mice were euthanized after two-week treatment to check the bone marrow for AML progress.
To check if Keto/BKM treatment affects the AML engraftment, Keto and Keto/BKM group mice were given a ketogenic diet for 10 days, then treated with vehicle or BKM120 by oral gavage for two weeks. […]

KPC allografts = KPC allografts treated with BKM120 and OSI-906; assay type: in vivo, mice; details: BKM120 combined with OSI-906, vs either drug alone
SGLT-2 = SGLT-2 (Homo sapiens (Human), UniProt P31639); details: read-out: IC50 of primary target; from Selleck Chem website; cited from earlier work
[2] = tested on: syngeneic K8484 KPC allografted tumors; test: glucose/insulin feedback after single dose of BKM120 in mice with KPC allografts; assay type: in vivo; details: pretreatment before a single treatment with BKM120; for insulin released in response to BKM120 (c-peptide): c-peptide after 3 hours; for growth signaling through mTORC1 in the tumor (pS6): tumors harvested at 90 minutes
IGF1R/INSR = details: from Selleck Chem website; read-out: IC50 of primary target; cited from earlier work
[3] = tested on: PIK3CA+MYC mutant murine breast tumor allografts, ES-278; test: ES-278 breast tumor allografts with or without keto diet; assay type: in vivo, mice; details: combined with ketogenic diet
Description: For solid tumor studies, Nude (genotype) and C57/BL6 mice were purchased at 8 weeks of age from Jackson laboratories (Bar Harbor, ME).

AKT1/2/3 = details: from Selleck Chem website; read-out: IC50 of primary target; cited from earlier work
[4] = tested on: HCT116 PTEN knockout (KO) cells; test: proliferation with PI3K inhibitors and insulin; assay type: cell-based, Human; details: insulin 10 ng/ml in presence of PI3K inhibitors GDC-0032, BYL-719
[5] = tested on: BT-549 breast cancer cells; test: proliferation in minimal growth media with BKM120 and insulin; assay type: cell-based, Human; details: insulin 10 ng/ml
[6] = tested on: ES272 Pik3ca mutant breast cancer allograft; test: Pik3ca mutant breast allografts, ketogenic diet, BYL-719 and exogenous insulin; assay type: in vivo, mice; details: 0.4 mU insulin 15 minutes after each dose of PI3K inhibitor
Description: To further test whether the improved response to PI3K inhibitors while on a ketogenic diet is a consequence of lowering blood insulin levels, the inventors attempted to “rescue” the PI3K reactivation using exogenous insulin. A cohort of the mice bearing Pik3ca mutant breast allografts were treated with the combination of a ketogenic diet and BYL-719, and then given 0.4 mU of insulin 15 minutes after each dose of PI3K inhibitor (FIG. 4B).

KPC cells = test: signaling and proliferation of KPC cells with PI3K inhibitor and insulin; assay type: cell-based, Mouse
Description: To test whether or not these spikes in insulin were stimulating PI3K signaling in the context of PI3K inhibition, KPC cells were treated in vitro with the PI3K inhibitors in the presence or absence of 10 ng/ml insulin, the level observed in the mice within 15-30 min after drug administration (FIG. 1D).
For signaling assays, cells were washed 1× in PBS and placed in starvation media (−FBS) for 6-18 hours depending upon cell line and treated 1 hour prior to harvesting with PI3K inhibitors as indicated alone or in combination with insulin 10 minutes prior to harvesting. Three-dimensional culture and dose response experiments of patient derived organoids were run as previously described. In brief, ˜1000 cells were plated in 10 ul of 1:1 matrigel to culture media in 96 well angiogenesis plates and allowed to solidify for 30 min at 37 degrees before 70 ul of culture media was added. Organoids were then treated in triplicate in a log scale dose response and CellTiter-Glo assay (Promega) was run at 96 hours to determine the IC50 values. Knockdown of insulin receptor was achieved using a doxycycline inducible shRNA strategy. For generation of miR-E shRNAs, 97-mer oligonucleotides were purchased (IDT Ultramers) coding for predicted shRNAs using an siRNA predictional tool Splash RNA (see website at splashrna.mskcc.org/).

[7] = tested on: PC-3 prostate adenocarcinoma cells; test: proliferation in minimal growth media with BKM120 and insulin; assay type: cell-based; details: insulin 10 ng/ml
KPC allografted tumors = assay type: in vivo; details: insulin added to ketogenic diet plus BYL-719
[8] = tested on: MDA-MB-468 breast cancer cells; test: proliferation in minimal growth media with BKM120 and insulin; assay type: cell-based, Human; details: insulin 10 ng/ml

Molecule: Cc1nc(NC(=O)N2CCC[C@H]2C(N)=O)sc1-c1ccnc(C(C)(C)C(F)(F)F)c1 [Apelisib, Alpelisib]
- drug efficacy (tumor models): improved drug efficacy
- response of KPC allografts (KPC K8484 tumors; BYL-719 combined with metformin, SGLT2i or ketogenic diet, concordant with ability to reduce serum insulin): enhanced response of KPC allografts

Molecule: Cc1c(CN2CCN(C(=O)[C@H](C)O)CC2)sc2c(N3CCOCC3)nc(-c3cnc(N)nc3)nc12 [Apitolisib]
- drug efficacy (tumor models): improved drug efficacy

Molecule: Nc1cc(C(F)(F)F)c(-c2cc(N3CCOCC3)nc(N3CCOCC3)n2)cn1 [Buparlisib]
- drug efficacy (tumor models): improved drug efficacy
- efficacy (survival) [1]: significantly enhanced
- growth of KPC allografts (KPC allografts): more effective response on the growth of KPC allografts than either drug alone

Molecule: Cc1ccc([C@@H]2OC(CO)[C@@H](O)C(O)C2O)cc1Cc1ccc(-c2ccc(F)cc2)s1 (some centres unmarked) [Conagliflozin, Canagliflozin]
- IC50 (SGLT-2): 2.2 nM

Molecule: Cc1ccc([C@@H]2O[C@H](CO)[C@@H](O)[C@H](O)[C@H]2O)cc1Cc1ccc(-c2ccc(F)cc2)s1 [Conagliflozin, Canagliflozin]
- PI3K inhibitor-induced elevation in blood glucose (hyperglycemia) [2]: decreased the resulting hyperglycemia
- insulin released in response to BKM120 (c-peptide) [2]: reduced the total insulin that was released
- growth signaling through mTORC1 in the tumor (pS6) [2]: reduced signaling through mTORC1 in the tumor
- overall survival (KPC K8484 tumors; added to treatment with BYL-719, vs BYL-719 alone): increases overall survival

Molecule: COc1c(OCCCN2CCOCC2)ccc2c1N=C(NC(=O)c1cnc(N)nc1)N1CCN=C21 [Copanilisib, Copanlisib]
- drug efficacy (tumor models): improved drug efficacy

Molecule: C[C@]1(O)C[C@@H](c2nc(-c3ccc4ccc(-c5ccccc5)nc4c3)c3c(N)nccn32)C1 [Linsitinib]
- IC50 (IGF1R/INSR): 35 nM
- treatment efficacy (tumor volume) [3]: significantly improved

Molecule: NC1(c2ccc(-c3nc4ccn5c(=O)[nH]nc5c4cc3-c3ccccc3)cc2)CCC1 [MK2206]
- IC50 (AKT1/2/3): 8 nM

Molecule: CS(=O)(=O)N1CCN(Cc2cc3nc(-c4cccc5[nH]ncc45)nc(N4CCOCC4)c3s2)CC1 [Pictilisib]
- drug efficacy (tumor models): improved drug efficacy

Molecule: Cc1nc(-c2cn3c(n2)-c2ccc(-c4cnn(C(C)(C)C(N)=O)c4)cc2OCC3)n(C(C)C)n1 [Taselisib]
- drug efficacy (tumor models): improved drug efficacy
- treatment efficacy (tumor volume) [3]: significantly improved

Molecule: CN(C)C(=N)NC(=N)N [metformin, Metformin]
- PI3K inhibitor-induced elevation in blood glucose (hyperglycemia) [2]: only minimal impact
- insulin released in response to BKM120 (c-peptide) [2]: only minimal impact
- growth signaling through mTORC1 in the tumor (pS6) [2]: only minimal impact

Molecule: insulin
- proliferation (percent confluence) [4]: restore normal proliferation
- growth (proliferation) [5]: partially rescued
- therapeutic benefit of ketogenic diet plus BYL-719 [6]: dramatically reduced the therapeutic benefit
- PI3K signaling (pAKT, pS6) (KPC cells; 10 ng/ml insulin in continued presence of PI3K inhibitors): partially rescue PI3K signaling
- cellular proliferation (KPC cells; 10 ng/ml insulin with BKM120 (1 uM)): partial recovery of cellular proliferation
- growth (proliferation) [7]: partially rescued
- tumor growth (KPC allografted tumors): rescued tumor growth
- growth (proliferation) [8]: partially rescued
